Assay results taken from ChEMBL document CHEMBL5291721, “A preclinical secondary pharmacology resource illuminates target-adverse drug reaction associations of marketed drugs” (Nat Commun, 2023).

Tests used:
[1] = target: T1, Muscarinic acetylcholine receptor M4 (Homo sapiens, UniProt P08173)
T1 sequence (P08173 whole entry): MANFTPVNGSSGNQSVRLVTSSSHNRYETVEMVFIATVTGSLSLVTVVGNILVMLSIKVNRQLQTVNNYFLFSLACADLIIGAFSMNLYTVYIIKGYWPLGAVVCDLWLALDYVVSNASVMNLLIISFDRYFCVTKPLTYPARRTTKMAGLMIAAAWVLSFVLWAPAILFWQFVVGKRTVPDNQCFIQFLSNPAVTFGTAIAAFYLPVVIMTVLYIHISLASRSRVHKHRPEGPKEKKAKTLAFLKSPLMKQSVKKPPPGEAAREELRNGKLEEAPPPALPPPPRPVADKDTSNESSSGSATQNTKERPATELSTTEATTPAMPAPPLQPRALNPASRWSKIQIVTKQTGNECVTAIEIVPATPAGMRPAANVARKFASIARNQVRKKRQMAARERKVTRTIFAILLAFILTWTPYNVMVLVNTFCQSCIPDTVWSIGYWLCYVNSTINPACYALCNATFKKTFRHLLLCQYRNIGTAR

[2] = target: Hydroxycarboxylic acid receptor 2 (Homo sapiens, UniProt Q8TDS4)
[3] = target: 5-hydroxytryptamine receptor 5A (Homo sapiens, UniProt P47898)
[4] = target: T2, Prostaglandin G/H synthase 1 (Rattus norvegicus, UniProt Q63921); type: functional
T2 sequence (Q63921 whole entry): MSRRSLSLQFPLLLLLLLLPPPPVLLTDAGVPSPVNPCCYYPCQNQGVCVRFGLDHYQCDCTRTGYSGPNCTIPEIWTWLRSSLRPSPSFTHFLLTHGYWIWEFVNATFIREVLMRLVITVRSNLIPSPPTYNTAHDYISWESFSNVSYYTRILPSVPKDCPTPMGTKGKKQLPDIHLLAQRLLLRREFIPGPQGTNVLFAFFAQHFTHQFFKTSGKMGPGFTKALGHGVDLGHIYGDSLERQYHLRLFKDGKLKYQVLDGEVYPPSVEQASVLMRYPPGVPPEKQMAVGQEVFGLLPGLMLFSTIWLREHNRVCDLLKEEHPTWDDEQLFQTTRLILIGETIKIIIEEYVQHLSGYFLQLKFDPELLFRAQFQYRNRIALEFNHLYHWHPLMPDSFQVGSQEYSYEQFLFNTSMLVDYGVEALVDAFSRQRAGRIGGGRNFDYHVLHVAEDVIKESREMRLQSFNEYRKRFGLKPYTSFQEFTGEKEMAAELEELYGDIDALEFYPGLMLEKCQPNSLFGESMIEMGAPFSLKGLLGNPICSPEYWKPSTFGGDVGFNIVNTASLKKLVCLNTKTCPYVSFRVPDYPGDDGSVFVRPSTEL

Androgen receptor [5] = target: T3, Androgen receptor (Rattus norvegicus, UniProt P15207); type: functional
T3 sequence (P15207 whole entry): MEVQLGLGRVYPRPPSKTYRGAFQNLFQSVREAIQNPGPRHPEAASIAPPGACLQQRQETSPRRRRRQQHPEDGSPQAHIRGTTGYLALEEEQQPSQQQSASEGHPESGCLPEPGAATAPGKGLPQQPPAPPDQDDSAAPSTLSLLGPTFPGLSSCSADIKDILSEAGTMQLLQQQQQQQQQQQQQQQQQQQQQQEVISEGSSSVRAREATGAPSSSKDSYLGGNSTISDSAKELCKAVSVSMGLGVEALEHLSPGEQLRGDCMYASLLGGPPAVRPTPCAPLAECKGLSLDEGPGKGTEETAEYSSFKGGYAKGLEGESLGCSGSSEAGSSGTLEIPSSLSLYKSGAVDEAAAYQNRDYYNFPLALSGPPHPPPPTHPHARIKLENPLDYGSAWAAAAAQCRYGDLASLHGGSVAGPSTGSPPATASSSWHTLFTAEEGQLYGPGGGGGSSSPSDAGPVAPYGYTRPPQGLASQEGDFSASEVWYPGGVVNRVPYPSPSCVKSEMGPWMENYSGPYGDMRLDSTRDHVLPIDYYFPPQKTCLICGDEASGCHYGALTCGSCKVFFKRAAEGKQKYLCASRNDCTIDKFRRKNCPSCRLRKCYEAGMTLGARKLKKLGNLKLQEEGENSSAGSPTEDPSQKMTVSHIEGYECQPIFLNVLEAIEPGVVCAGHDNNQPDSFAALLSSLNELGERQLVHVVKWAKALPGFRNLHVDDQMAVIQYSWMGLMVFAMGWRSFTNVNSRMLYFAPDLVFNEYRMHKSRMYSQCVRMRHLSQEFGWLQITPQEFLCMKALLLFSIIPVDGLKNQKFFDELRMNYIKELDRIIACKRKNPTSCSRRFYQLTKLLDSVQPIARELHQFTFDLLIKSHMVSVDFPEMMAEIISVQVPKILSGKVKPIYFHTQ

[6] = target: T4, Nuclear receptor subfamily 1 group I member 3 (Homo sapiens, UniProt Q14994); type: functional
T4 sequence (Q14994 whole entry): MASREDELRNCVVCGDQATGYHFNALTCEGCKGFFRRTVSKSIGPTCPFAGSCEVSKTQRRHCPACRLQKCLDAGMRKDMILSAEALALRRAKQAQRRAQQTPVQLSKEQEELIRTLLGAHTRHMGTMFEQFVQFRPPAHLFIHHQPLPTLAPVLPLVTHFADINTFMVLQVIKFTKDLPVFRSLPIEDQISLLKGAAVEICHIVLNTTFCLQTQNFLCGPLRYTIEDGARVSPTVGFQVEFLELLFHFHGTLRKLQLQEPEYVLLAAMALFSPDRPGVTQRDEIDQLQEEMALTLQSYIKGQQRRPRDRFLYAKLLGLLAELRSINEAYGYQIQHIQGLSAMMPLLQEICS

Androgen receptor [7] = target: T3, Androgen receptor
Acetylcholinesterase = Acetylcholinesterase (Homo sapiens, UniProt P22303); type: functional
D(1A) dopamine receptor = D(1A) dopamine receptor (Homo sapiens, UniProt P21728); type: functional, cell-based
Further: assay procedure not described here.

D(1A) dopamine receptor, sequence (P21728 whole entry): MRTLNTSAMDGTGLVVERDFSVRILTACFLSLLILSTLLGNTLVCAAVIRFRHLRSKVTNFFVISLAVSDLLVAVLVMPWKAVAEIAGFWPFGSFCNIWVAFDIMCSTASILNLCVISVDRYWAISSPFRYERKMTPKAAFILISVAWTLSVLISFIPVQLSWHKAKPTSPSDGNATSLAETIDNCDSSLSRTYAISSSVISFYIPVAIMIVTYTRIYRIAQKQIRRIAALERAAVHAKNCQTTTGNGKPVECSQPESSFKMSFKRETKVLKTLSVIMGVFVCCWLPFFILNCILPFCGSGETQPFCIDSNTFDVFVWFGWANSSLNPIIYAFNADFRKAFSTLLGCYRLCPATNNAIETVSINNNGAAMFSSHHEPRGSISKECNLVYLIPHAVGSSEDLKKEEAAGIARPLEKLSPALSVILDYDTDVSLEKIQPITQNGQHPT
Hydroxycarboxylic acid receptor 2, sequence (Q8TDS4 whole entry): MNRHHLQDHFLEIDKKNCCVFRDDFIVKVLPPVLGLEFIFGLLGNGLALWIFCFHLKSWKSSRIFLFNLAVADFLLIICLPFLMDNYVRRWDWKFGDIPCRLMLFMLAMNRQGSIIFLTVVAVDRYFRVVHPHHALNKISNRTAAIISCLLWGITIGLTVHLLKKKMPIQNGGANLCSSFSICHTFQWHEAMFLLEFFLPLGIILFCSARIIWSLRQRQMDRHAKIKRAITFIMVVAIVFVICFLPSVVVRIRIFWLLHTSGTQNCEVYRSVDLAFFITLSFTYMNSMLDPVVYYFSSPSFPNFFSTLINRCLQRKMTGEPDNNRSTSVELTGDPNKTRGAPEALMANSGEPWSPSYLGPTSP
5-hydroxytryptamine receptor 5A, sequence (P47898 whole entry): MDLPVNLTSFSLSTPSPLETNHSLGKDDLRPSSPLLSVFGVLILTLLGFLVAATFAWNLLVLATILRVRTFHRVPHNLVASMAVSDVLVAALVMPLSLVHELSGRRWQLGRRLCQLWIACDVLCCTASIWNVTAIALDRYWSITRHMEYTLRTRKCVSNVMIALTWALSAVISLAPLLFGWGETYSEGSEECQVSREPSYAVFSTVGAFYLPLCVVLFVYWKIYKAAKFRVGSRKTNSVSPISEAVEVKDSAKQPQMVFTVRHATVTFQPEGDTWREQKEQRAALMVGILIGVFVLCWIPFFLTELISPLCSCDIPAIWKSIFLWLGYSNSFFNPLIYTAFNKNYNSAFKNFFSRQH
Acetylcholinesterase, sequence (P22303 whole entry): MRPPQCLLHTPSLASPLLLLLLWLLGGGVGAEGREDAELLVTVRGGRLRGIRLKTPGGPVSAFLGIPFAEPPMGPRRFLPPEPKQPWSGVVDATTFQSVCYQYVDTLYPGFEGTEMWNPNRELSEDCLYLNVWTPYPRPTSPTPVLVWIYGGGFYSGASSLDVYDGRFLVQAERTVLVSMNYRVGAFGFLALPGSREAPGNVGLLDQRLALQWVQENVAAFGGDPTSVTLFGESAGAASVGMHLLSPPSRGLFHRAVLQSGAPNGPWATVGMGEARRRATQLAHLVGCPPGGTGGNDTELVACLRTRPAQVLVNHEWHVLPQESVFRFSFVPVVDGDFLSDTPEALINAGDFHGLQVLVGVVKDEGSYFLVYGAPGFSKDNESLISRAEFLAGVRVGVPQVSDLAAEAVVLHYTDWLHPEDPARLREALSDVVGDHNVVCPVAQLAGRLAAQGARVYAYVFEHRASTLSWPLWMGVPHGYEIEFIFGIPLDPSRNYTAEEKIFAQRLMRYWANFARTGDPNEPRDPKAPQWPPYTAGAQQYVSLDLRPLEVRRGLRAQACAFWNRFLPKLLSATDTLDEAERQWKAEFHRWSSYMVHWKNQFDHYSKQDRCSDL

SMILES: Cc1onc(-c2ccccc2)c1-c1ccc(S(N)(=O)=O)cc1 [VALDECOXIB]
- AC50 [1]: > 10 µM
- AC50 [2]: > 10 µM
- AC50 [3]: > 10 µM
- AC50 [4]: > 30 µM

SMILES: CCCN(CCC)C(=O)Cc1c(-c2ccc(Cl)cc2)nc2ccc(Cl)cn12 [ALPIDEM]
- AC50 [1]: > 10 µM

SMILES: Nc1ccc(S(=O)(=O)Nc2nccs2)cc1 [SULFATHIAZOLE]
- AC50 [2]: > 10 µM

SMILES: CC(C)N(CCC(C(N)=O)(c1ccccc1)c1ccccn1)C(C)C (stereo not given) [DISOPYRAMIDE]
- AC50 [4]: 29.7 µM

SMILES: CCCC(CCC)C(=O)O [VALPROIC ACID]
- AC50 [1]: > 10 µM

SMILES: C[C@@H](NCCCc1cccc(C(F)(F)F)c1)c1cccc2ccccc12
- AC50 (Androgen receptor [5]): > 30 µM

SMILES: C[C@H]1c2cccc(O)c2C(=O)C2=C(O)[C@]3(O)C(=O)C(C(N)=O)=C(O)[C@@H](N(C)C)[C@@H]3[C@@H](O)[C@@H]21 [DOXYCYCLINE]
- AC50 [2]: > 10 µM

SMILES: CO[C@H]1/C=C/O[C@@]2(C)Oc3c(C)c(O)c4c(O)c(c(/C=N/N5CCN(C)CC5)c(O)c4c3C2=O)NC(=O)/C(C)=C\C=C\[C@H](C)[C@H](O)[C@@H](C)[C@@H](O)[C@@H](C)[C@H](OC(C)=O)[C@@H]1C [RIFAMPIN]
- AC50 [6]: > 30 µM

SMILES: C=CC[C@@H]1/C=C(\C)C[C@H](C)C[C@H](OC)[C@H]2O[C@@](O)(C(=O)C(=O)N3CCCC[C@H]3C(=O)O[C@H](/C(C)=C/[C@@H]3CC[C@@H](O)[C@H](OC)C3)[C@H](C)[C@@H](O)CC1=O)[C@H](C)C[C@@H]2OC [TACROLIMUS ANHYDROUS]
- AC50 (Androgen receptor [7]): > 30 µM
- AC50 (Acetylcholinesterase): > 30 µM
- AC50 (D(1A) dopamine receptor): > 30 µM

SMILES: CC(=O)O[C@]1(C(C)=O)CC[C@H]2[C@@H]3C=C(C)C4=CC(=O)CC[C@@H]4[C@H]3CC[C@@]21C [NOMEGESTROL ACETATE]
- AC50 (Androgen receptor [5]): > 30 µM

SMILES: COc1ccccc1Oc1c(NS(=O)(=O)c2ccc(C(C)(C)C)cc2)nc(-c2ncccn2)nc1OCCO [BOSENTAN]
- AC50 [6]: 2.1 µM

SMILES: CCN1CCN(Cc2ccc(Nc3ncc(F)c(-c4cc(F)c5nc(C)n(C(C)C)c5c4)n3)nc2)CC1 [ABEMACICLIB]
- AC50 (Acetylcholinesterase): > 30 µM
- AC50 (D(1A) dopamine receptor): > 30 µM

SMILES: COc1ccc(CC2c3cc(OC)c(OC)cc3CC[N+]2(C)CCC(=O)OCCCCCOC(=O)CC[N+]2(C)CCc3cc(OC)c(OC)cc3C2Cc2ccc(OC)c(OC)c2)cc1OC (stereo not given)
- AC50 (Androgen receptor [5]): > 30 µM
- AC50 [4]: 18.9 µM

SMILES: N[C@@H](CC(=O)N1CCn2c(nnc2C(F)(F)F)C1)Cc1cc(F)c(F)cc1F [SITAGLIPTIN]
- AC50 [1]: > 10 µM
- AC50 [3]: > 10 µM

SMILES: CC(C(=O)O)c1ccc2c(c1)[nH]c1ccc(Cl)cc12 (stereo not given) [CARPROFEN]
- AC50 [6]: > 30 µM

SMILES: COc1ccccc1OCCNCC(O)COc1cccc2[nH]c3ccccc3c12 (stereo not given) [CARVEDILOL]
- AC50 (Androgen receptor [5]): > 30 µM
- AC50 (Androgen receptor [7]): > 30 µM
- AC50 [4]: > 30 µM

SMILES: C[C@@H](Oc1cc(-c2cnn(C3CCNCC3)c2)cnc1N)c1c(Cl)ccc(F)c1Cl [CRIZOTINIB]
- AC50 (D(1A) dopamine receptor): > 30 µM

SMILES: CN(C)CCc1c[nH]c2ccc(Cn3cncn3)cc12 [RIZATRIPTAN]
- AC50 (Androgen receptor [7]): > 30 µM

SMILES: COc1cc2nccc(Oc3ccc(NC(=O)C4(C(=O)Nc5ccc(F)cc5)CC4)cc3)c2cc1OC [CABOZANTINIB]
- AC50 (Acetylcholinesterase): > 30 µM
- AC50 (D(1A) dopamine receptor): 13 µM

SMILES: C[C@H](CCC(=O)O)[C@H]1CC[C@H]2[C@@H]3[C@@H](O)C[C@@H]4C[C@H](O)CC[C@]4(C)[C@H]3CC[C@]12C [URSODIOL]
- AC50 (Acetylcholinesterase): > 30 µM
- AC50 (D(1A) dopamine receptor): > 30 µM

SMILES: CCN(CC)CCNC(=O)c1c(C)[nH]c(/C=C2\C(=O)Nc3ccc(F)cc32)c1C [SUNITINIB]
- AC50 [1]: > 10 µM
- AC50 [6]: > 30 µM
- AC50 [3]: 10 µM
